Active and inactive are the calls of the source.
Columns and labels:
[1] = molecular target: T1, Calpain-2 catalytic subunit (Sus scrofa, UniProt P43367); test: m-calpain protease blockers, concentration series – biochemical, fluorogenic peptide substrate, dose response (AID 1420); type: functional
T1 sequence (P43367 whole entry): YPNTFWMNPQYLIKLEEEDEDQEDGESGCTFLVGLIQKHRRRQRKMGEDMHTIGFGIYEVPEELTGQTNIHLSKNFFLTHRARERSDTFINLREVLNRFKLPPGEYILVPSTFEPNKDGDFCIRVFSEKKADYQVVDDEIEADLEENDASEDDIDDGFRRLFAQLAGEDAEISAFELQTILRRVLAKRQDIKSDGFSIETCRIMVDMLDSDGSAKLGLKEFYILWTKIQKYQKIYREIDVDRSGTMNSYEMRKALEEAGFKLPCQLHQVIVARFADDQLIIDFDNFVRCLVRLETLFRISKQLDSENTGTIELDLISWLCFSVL

X-box-binding protein 1 = X-box-binding protein 1 (Homo sapiens, UniProt P17861); type: functional, Cricetulus griseus;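 also: confirmatory dose-response counter-screen serving a CHOP assay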
X-box-binding protein 1, sequence (P17861 whole entry): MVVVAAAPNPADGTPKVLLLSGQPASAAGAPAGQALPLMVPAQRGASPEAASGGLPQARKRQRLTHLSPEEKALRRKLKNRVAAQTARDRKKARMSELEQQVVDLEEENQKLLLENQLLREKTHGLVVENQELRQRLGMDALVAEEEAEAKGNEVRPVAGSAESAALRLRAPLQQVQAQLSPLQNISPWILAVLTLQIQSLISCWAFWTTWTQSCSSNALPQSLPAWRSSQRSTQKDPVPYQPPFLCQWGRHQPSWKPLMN

Insulin-degrading enzyme [2] = molecular target: T2, Insulin-degrading enzyme (Homo sapiens, UniProt P14735); test: recombinant IDE activation, cell-free – biochemical, fluorescence polarization, counter-screen for IDE activator project, dose response (AID 588681)
T2 sequence (P14735 whole entry): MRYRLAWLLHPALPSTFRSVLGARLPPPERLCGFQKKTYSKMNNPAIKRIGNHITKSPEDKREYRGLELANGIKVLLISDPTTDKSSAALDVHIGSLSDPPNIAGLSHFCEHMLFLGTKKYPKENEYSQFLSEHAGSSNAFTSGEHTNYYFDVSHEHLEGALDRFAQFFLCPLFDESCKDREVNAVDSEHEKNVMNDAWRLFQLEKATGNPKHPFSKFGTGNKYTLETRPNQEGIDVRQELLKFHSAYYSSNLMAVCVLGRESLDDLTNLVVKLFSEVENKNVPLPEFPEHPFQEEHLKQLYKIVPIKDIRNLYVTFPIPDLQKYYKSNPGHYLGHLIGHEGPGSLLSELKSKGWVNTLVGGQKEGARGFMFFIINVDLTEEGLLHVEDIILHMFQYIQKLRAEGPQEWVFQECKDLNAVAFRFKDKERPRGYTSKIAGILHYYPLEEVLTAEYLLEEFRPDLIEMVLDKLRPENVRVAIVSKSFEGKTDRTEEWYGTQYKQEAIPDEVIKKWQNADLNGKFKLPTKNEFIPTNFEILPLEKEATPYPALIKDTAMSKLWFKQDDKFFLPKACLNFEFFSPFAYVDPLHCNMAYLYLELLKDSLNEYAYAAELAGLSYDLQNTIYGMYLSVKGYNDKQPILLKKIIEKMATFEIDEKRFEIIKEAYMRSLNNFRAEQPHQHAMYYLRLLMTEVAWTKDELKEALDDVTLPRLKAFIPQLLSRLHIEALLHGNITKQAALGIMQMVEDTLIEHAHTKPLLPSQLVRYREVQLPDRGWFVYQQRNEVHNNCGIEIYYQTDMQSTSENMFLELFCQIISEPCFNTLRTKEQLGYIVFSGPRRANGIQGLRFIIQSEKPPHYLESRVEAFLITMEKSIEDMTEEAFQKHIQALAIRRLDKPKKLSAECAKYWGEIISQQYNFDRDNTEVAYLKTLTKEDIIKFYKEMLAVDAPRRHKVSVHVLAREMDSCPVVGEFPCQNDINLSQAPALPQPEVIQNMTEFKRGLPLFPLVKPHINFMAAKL

Protein RecA = molecular target: T3, Protein RecA (Mycobacterium tuberculosis, UniProt P9WHJ3); test: Fluorescence Cell-Free Homogeneous Dose Retest to Identify Inhibitors of RecA-Intein Splicing Activity. [Related pubchem assays (depositor defined):AID2097, AID2223, AID489010, AID492950]; type: functional
T3 sequence (P9WHJ3 whole entry): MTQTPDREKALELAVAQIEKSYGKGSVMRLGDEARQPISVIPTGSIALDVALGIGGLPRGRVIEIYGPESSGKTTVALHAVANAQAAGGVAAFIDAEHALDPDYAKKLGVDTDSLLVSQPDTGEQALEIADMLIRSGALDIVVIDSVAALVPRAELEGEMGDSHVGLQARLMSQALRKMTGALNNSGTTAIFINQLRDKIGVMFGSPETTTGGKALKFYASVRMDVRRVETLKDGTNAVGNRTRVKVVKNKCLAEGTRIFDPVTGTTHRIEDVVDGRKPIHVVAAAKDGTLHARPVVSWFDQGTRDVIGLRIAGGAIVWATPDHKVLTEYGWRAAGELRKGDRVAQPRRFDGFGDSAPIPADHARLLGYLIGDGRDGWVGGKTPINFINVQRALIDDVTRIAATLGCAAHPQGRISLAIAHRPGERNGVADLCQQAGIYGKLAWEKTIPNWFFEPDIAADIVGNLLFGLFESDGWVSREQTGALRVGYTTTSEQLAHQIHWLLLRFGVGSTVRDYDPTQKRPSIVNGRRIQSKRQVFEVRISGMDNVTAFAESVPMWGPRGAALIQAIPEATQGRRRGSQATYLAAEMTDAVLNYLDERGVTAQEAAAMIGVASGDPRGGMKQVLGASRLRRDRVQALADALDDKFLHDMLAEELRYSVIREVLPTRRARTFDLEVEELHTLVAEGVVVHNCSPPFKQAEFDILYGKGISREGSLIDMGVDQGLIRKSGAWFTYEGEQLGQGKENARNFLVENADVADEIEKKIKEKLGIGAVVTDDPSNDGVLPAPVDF

Insulin-degrading enzyme [3] = molecular target: T2, Insulin-degrading enzyme; test: cellular IDE activation of Abeta substrate cleavage – fluorescence polarization, HEK cells, dose response (AID 588439); type: functional, cell-based
HEK293 = test: optical interference in Abeta FP readout, dose response, artefact control for IDE activator project, biochemical, fluorescence polarization (AID 588442); type: functional, cell-based; conditions: Homo sapiens
[4] = reduction of Shn3 3'UTR-driven luciferase in osteoblasts – cell-based, Clone20 osteoblasts, firefly luciferase, cherry-picked, dose response (AID 624132); type: functional;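 also: firefly luciferase luminescence from reporter carrying the Shn3 3'UTR in osteoblasts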
[5] = loss of viability in HepG2 cells – cell-based, CellTiter-Glo, cherry-picked, cytotoxicity control for Shn3 inhibitor project, dose response (AID 624134); type: functional
[6] = reduced cellular PGC1a acetyl-lysine signal – cell-based, cherry-picked samples, dose response (AID 720514); type: functional;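 also: potency may reflect raised or lowered acetylation signal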
[7] = A549 cell cytotoxicity, dose response, cytotoxicity control, plate reader, cherry-pick, antagonist series (AID 743412); type: functional, cell-based
[8] = toxicity toward HepG2 liver cells – cell-based, plate reader, cherry-pick, antagonist series, cytotoxicity control, dose response (AID 743416); type: functional
[9] = blockers of bursicon-stimulated LGR2 cAMP reporter – cell-based, HEK293, CRE-luciferase reporter, cherry pick, set 2, dose response (AID 743343); type: functional;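 also: transfected cells were stimulated with diluted bursicon conditioned medium after compound addition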
[10] = viability loss in HEK293 cells – cell-based, plate reader, cherry-picked samples, cytotoxicity control, dose response (AID 743446); type: functional

With Cl.N=c1n(Cc2ccccc2)c2ccccc2n1CC(O)COc1ccc(Cl)cc1Cl (stereo not drawn) the IC50 [1] was 33.4 µM (not active), the “Absolute IC50 (XBP1)” value (X-box-binding protein 1) was 10 µM and the EC50 (Insulin-degrading enzyme [2]) was 40.1 µM (inactive). The EC50 (Protein RecA) was > 380 µM (inconclusive), the EC50 (Insulin-degrading enzyme [3]) was 11.2 µM (inactive) and the EC50 (HEK293) was > 54.7 µM (inactive). The AC50 [4] was 2.89 µM (active), the AC50 [5] was 14.3 µM (active) and the AC50 [6] was 6.94 µM (active). For the same compound, the AC50 [7] was 6.26 µM (active), the AC50 [8] was 6.16 µM (active) and the AC50 [9] was 23.1 µM (active). The AC50 [10] was 12.7 µM (active).
